This test concerns the target T1, Histone acetyltransferase KAT8 (Homo sapiens, UniProt Q9H7Z6).
T1 sequence (Q9H7Z6 whole entry): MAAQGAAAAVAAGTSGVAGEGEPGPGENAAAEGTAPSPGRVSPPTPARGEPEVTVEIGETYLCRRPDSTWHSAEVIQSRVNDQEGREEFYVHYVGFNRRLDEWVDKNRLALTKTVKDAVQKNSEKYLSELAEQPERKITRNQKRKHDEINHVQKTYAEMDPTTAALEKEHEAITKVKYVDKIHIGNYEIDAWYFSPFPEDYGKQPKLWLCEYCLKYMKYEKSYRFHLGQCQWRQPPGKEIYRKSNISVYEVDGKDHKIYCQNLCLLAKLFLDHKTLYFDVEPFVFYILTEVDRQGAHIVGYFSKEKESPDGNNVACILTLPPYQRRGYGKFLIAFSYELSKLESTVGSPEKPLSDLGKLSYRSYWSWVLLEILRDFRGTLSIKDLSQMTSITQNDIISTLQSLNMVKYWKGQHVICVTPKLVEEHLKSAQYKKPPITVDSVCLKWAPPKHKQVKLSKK
As to the kind of experiment: Inhibition of recombinant N-terminal His6-tagged KAT8 (unknown origin) expressed in Escherichia Coli BL21 DE3 cells assessed as reduction of Co A level using histone H4 substrate after 15 mins by CPM fluorescence assay.
Consider `CCCCCCCCCCCCCCCc1ccc(O)c(C(=O)O)c1`, for which the inhibition constant Ki came to 79 µM.
With `CCCCCCCCCCc1ccc(O)c(C(=O)O)c1`, the inhibition constant Ki was determined as 57 µM.
In the case of `O=C(O)c1c(O)cccc1CCCCCCCCCCCO`, the Ki was 157 µM.
In the case of `CCCCCCCCCCc1cccc(O)c1C(=O)O`, the Ki was 37 µM.

In general, Ki refers to a measure of affinity in units of concentration, obtained from inhibition or displacement.

Values taken from ChEMBL document CHEMBL3734689, “Enzyme kinetics and inhibition of histone acetyltransferase KAT8” (Eur J Med Chem, 2015).
